Experimental data reported in US20250359547A1, “ALKOXYLATED ALKANOLS FOR ENHANCING THE ACTIVITY OF ANTIMICROBIAL AGENTS” (BASF SE, priority 2022, published 2025).

Test system: Escherichia coli (E. coli DSM 682)
Experiment: Bactericidal activity of cleaner/disinfecting formulations according to DIN EN 1276-2010 under dirty conditions
Format: cell-based
Conditions: no ethoxylated alkanol, 0.3% bovine albumin, 35° C., 5 min contact time
Description: For biological activity testing, the following microorganisms were used: Escherichia coli(E. coli DSM 682)
Lutensol® XP 40 and benzalkonium chloride (BAC) were formulated into a dilutable concentrated hard-surface cleaner. For comparison, corresponding formulations containing Lutensol® XP 70 or Lutensol® A 7 N instead of Lutensol® XP 40 were also prepared. The finished formulations were pre-dissolved 1:80 in standardized hard water (DIN EN 1276-2010) and then diluted to 80% by adding 1 ml of the inoculate and 1 ml of bovine albumin solution to 8 ml of the pre-dissolved cleaner, so that in-test a dilution of 1:100 was obtained.
(§1) Antimicrobial testing of the above formulations in 1:100 dilution was done according to European Standard (DIN EN 1276-2010) under dirty conditions, i.e. additional soiling of 0.3% bovine albumin at 35° C. and 5 mi contact time. Neutralization was done using the Saponin-containing neutralizer as described in DIN EN 1276 (30 g/l Polysorbate 80+30 g/l Saponin+3 g/l Lecithin). Results are documented in the table below as logarithmic reduction (Ig R) in comparison to the number of microorganisms used for the test.
Benzalkonium chloride (BAC) and one of Lutensol® XP 30, Lutensol® XP 40 and Lutensol® XP 50 were formulated into a dilutable concentrated hard-surface cleaner. The finished formulations were pre-dissolved 1:80 in standardized hard water (DIN EN 1276-2010) and then diluted to 80% by adding 1 ml of the inoculate and 1 ml of bovine albumin solution to 8 ml of the pre-dissolved cleaner, so that in-test a dilution of 1:100 was obtained.
as §1, with “5 min” for “5 mi”, “test. […]” for “test.”

Row | Compound | E. coli logarithmic reduction (lg R) (Example 1, BAC 40 ppm in-test, 1:100 dilution, pH ca. 8) | E. coli logarithmic reduction (lg R) (Example 2, BAC 40 ppm in-test) | E. coli logarithmic reduction (lg R) (Example 3, DDAC 20 ppm in-test)
1 | CCCCCCCCCCCC[N+](C)(C)Cc1ccccc1.[Cl-] [BAC, lauryl dimethyl benzyl ammonium chloride] | <0.87 lg R | 0.4 lg R | 
2 | CCCCCCCCCC[N+](C)(C)CCCCCCCCCC.[Cl-] [DDAC, didecyldimethylammonium chloride] |  |  | 0.7 lg R
